Our source for the EC50 values is BindingDB's records for doi:10.7270/Q2VT1QHF (Vanderbilt Screening Center For Gpcrs, Ion Channels and …, 2010).

What is called EC50 is the concentration at which the effect is half-maximal. A lower EC50 goes with a more potent agent.

In this assay the target is Metabotropic glutamate receptor 4 (Homo sapiens, UniProt Q14833). In words: PubChem AID 2197.
Metabotropic glutamate receptor 4, sequence (Q14833 whole entry): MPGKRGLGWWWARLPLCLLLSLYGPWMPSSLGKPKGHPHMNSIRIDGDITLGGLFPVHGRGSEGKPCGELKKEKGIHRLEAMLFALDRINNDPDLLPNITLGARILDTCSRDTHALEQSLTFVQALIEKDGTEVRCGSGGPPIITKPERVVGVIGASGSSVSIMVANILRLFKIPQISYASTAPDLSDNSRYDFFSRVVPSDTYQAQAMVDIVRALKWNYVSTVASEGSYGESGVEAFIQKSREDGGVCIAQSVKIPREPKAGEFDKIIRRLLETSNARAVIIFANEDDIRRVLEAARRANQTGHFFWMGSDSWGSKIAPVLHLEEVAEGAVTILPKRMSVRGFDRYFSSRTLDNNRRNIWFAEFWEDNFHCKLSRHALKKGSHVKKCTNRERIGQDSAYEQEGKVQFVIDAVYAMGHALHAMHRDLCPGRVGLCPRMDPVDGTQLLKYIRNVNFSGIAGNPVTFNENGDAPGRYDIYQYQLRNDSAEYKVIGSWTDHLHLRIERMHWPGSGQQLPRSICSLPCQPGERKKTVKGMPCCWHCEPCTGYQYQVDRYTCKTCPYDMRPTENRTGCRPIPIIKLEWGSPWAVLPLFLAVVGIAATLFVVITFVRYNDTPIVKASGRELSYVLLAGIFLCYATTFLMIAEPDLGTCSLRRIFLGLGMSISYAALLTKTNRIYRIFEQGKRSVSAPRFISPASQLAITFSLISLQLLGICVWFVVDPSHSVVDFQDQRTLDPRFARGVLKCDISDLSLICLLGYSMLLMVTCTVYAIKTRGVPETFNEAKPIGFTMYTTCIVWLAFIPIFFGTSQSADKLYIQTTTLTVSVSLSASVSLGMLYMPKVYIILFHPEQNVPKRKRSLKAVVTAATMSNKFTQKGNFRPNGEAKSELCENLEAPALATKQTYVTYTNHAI

Compound `O=C(Nc1ccc(-n2c(O)c3c(c2O)[C@H]2CC[C@@H]3O2)c(Cl)c1)c1ccccn1` [VU0405235-1] displayed an EC50 of 1.44 µM.
As for `O=C(Nc1ccc(-n2c(O)ccc2O)c(Cl)c1)c1ccccn1` [N-[3-chloro-4-(2,5-dioxopyrrolidin-1-yl)phenyl]pyridine-2-carboxamide], the figure is 5.96 µM.
